# According to US20100204340A1 (priority 2009, published 2010):
# Experiments:
# [1] = system: Propionibacterium acnes ATCC 11827; experiment: Disc diffusion method, zone of inhibition; format: cell-based
# Text: Method: Disc diffusion method was done to study Minimum inhibitory concentration (MIC).
# Materials • 1. Propionibacterium acnes ATCC 11827 • 2. Physiological saline or Buffered peptone water (BPW). • 3. Reinforced clostridium medium (RCM) Hi-media • 4. Reinforced clostridium agar (RCA) Hi-media • 5. Anaerobic chamber. • 6. Gassing manifold Nitrogen, mixed gases. • 7. Spectrophotometer (600 nm to 625 nm). • 8. Sterile Petri plates (150 mm×90 mm). • 9. Sterile micro pipettes and sterile micro tips. • 10. Sterile disc 6 mm. • 11. Samples tested: Resveratrol (Batch No.: C81173) and 3-Hydroxypsterostilbene (Batch No.: P80096)
# The chamber used in the study is of COY LABORATORY USA model 8301-230, 3 ft polymer. The anaerobic chamber consists of a main chamber where in all the operations and incubation of the culture are carried out and a transfer chamber which is meant for taking the materials in and out of the equipment. The main chamber is provided with a heated fan box in order to maintain the required temperature (37° C.) and to circulate the air in the chamber. A catalyst stakpak is fixed to this fan box which consists of palladium catalyst, which is meant to convert oxygen to water molecules by reacting with hydrogen molecules. The anaerobic condition in the chamber for this is maintained by initialization with Nitrogen gas and then by the Mixture gas of N2+H2+CO2 in the proportion 80:10:10. Two gas tank arrangements have been done where only N2 is connected to the transfer chamber.
# To carry out the antimicrobial activity of the products against P.acnes the organism was first cultured in the anaerobic conditions. Culture was inoculated into pre-sterile reinforced Clostridium medium (RCM) and incubated at anaerobic condition for 24 hrs. 24 hr to 48 hrs culture at Optical Density @625 nm was determined 0.632 (1:2 dilution) 4.0 Macfarland standards.
# 30 ml of sterilized RCM was poured into the pre-sterile Petri plates inside the chamber and allowed to solidify. The culture was inoculated (0.2 ml/plate) and spread evenly. After 30 minutes, antibacterial sterile discs (6 mm) were dispensed. […] 10 μl of the prepared sample and controls were dispensed onto the discs. The plates were incubated inside the anaerobic chamber at 37° C. for 24 to 48 hours duration.
# [2] = biological target: T1, SIRT1 polypeptide (Homo sapiens, UniProt Q96EB6); experiment: SIRT 1 Direct fluorescent Screening Assay kit (Cayman); format: biochemical; settings: read-out: Percentage SIRT 1 modulation; for activation at 1 µg/mL: 1 μg/ml; for activation at 10 µg/mL: 10 μg/ml
# T1 construct: purchased Cayman Chemical Company 10010401
# T1 sequence (Q96EB6 1-747): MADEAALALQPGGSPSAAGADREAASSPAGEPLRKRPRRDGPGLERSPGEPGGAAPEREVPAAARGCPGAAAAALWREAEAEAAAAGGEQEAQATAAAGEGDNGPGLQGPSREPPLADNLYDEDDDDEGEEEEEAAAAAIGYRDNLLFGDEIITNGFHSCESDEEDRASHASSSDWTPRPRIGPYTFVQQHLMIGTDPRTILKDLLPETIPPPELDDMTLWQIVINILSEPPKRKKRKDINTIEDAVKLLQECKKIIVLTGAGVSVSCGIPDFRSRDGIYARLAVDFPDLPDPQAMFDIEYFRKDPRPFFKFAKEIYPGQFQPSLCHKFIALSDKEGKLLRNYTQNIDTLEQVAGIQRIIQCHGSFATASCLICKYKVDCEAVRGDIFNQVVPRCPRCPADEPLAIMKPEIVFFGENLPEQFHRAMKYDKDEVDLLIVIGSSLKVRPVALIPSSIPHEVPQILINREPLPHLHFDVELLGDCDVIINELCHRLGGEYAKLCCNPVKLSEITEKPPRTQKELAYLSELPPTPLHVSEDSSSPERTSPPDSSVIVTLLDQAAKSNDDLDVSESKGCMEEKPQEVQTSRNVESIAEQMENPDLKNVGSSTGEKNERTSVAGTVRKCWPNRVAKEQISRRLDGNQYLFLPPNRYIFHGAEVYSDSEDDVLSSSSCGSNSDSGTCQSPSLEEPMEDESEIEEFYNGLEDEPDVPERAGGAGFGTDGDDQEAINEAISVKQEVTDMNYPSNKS
# Procedure: SIRT-1 activation/inhibition was measured using the SIRT 1 Direct fluorescent Screening Assay kit (Catalog No. 10010401) and instructions provided therein of Cayman Chemical Company, 1180 East Ellsworth Road, Ann Arbor, Mich. 48108 USA. (http://www.caymanchem.com/pdfs/10010401.pdf)
# [3] = sample 5.0 % (w/v) in DMSO, 10 μl per 6 mm disc
Structure (SMILES),Zone of inhibition ([1]; sample 0.078 % (w/v) in DMSO),Zone of inhibition ([1]; sample 0.156 % (w/v) in DMSO),"Zone of inhibition ([1]; sample 0.31 % (w/v) in DMSO (3.12 mg/ml), listed as 3-Hydroxy Pterostilbene)","Zone of inhibition ([1]; sample 0.31 % (w/v) in DMSO (3.12 mg/ml), listed as 3-Hydroxy pterostilbene)",Zone of inhibition ([1]; sample 0.625 % (w/v) in DMSO),Zone of inhibition ([1]; sample 1.25 % (w/v) in DMSO),Zone of inhibition ([1]; sample 2.5 % (w/v) in DMSO),"Zone of inhibition [1, 3]",activation at 1 µg/mL [2],activation at 10 µg/mL [2],"Concentration required to produce a zone of inhibition of 10 mm ([1]; disc diffusion, 0.625% w/v)",Zone of inhibition ([1]; sample 0.31 % (w/v) in DMSO (3.12 mg/ml))
COc1cc(/C=C/c2ccc(O)c(O)c2)cc(OC)c1 [3-hydroxypterostilbene],No zone,No zone,10.0 mm,10 mm,13.0 mm,15.0 mm,17.0 mm,18.0 mm,224%,669%,,
"Oc1ccc(/C=C/c2cc(O)cc(O)c2)cc1 [Resveratrol, 3,4′,5-trihydroxy-trans-stilbene]",No zone,No zone,,,10.0 mm,12.0 mm,13.0 mm,13.0 mm,138%,291%,6.25 mg/mL,No zone
